Source: patent US9341616B2, “Sweet taste receptor chimeric proteins and use thereof” (AJINOMOTO CO., INC., priority 2014, dated 2016)
Residues, ends and D or L forms follow the SMILES beside them.

Assays:
hT1R2/hT1R3 = biological target: T1, hT1R2/hT1R3 (Homo sapiens, UniProt Q7RTX0+Q8TE23, C757R); assay: Intracellular calcium assay (ΔF/F, S/N ratio) in HEK293E cells expressing hT1R2 and hT1R3 with Gα15-trans48LD; assay type: cell-based;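 also: fluorescence read over 120 s after adding sweet stimulant across several concentrations, S/N taken as highest over lowest ΔF/F, higher meaning more sensitive detection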
T1 construct: expressed in transfected cells; host or cells: HEK293E
T1 sequence (Q8TE23 20-839): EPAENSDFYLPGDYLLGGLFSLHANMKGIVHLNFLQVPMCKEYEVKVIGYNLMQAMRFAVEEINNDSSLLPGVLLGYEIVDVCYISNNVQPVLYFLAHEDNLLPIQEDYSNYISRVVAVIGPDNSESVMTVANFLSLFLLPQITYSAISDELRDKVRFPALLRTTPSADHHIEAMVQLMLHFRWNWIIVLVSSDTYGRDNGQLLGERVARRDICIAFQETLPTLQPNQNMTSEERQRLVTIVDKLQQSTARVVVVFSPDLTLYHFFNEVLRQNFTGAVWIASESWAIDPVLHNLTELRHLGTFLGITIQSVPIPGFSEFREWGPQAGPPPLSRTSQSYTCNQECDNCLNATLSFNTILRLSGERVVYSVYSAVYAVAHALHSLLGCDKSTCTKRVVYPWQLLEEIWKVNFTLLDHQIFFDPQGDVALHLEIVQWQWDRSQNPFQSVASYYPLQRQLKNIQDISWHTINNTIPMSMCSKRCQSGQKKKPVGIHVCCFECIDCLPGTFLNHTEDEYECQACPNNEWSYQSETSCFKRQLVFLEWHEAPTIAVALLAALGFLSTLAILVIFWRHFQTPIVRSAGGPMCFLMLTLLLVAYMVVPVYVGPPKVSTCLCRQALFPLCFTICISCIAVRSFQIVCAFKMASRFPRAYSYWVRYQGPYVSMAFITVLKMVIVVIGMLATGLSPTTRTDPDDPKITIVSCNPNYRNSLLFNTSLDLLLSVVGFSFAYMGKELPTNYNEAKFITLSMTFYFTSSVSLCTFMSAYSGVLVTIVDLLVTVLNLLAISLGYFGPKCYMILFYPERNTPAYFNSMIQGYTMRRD
T1 sequence (Q7RTX0 21-852 C757R): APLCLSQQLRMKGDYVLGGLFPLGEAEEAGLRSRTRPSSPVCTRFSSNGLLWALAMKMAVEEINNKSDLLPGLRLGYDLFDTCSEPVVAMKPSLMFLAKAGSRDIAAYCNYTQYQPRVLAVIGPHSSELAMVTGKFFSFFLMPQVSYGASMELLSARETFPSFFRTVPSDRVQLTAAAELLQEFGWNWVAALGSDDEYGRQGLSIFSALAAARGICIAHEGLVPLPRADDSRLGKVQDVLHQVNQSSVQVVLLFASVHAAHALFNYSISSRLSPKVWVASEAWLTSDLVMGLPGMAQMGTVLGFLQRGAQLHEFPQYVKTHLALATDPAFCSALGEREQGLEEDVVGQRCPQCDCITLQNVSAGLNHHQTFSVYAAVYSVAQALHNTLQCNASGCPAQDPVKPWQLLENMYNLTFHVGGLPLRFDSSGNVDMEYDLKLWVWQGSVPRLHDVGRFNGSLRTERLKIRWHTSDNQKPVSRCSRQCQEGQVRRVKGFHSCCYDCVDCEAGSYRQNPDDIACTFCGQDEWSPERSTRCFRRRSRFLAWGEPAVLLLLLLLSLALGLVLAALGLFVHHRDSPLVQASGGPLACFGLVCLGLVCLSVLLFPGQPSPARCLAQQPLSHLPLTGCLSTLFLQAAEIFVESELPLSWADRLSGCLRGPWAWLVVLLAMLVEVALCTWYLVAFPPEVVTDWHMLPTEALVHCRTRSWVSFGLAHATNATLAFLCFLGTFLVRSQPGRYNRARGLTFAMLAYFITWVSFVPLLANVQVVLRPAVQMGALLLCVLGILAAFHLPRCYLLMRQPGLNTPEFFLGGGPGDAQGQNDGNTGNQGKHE
Method: The HEK293E cells maintained by using the DMEM/Ham's F-12 medium (Nakarai Tesque) containing 10% fetal bovine serum ([sequence]) and 1% Pen Strep (GIBCO) were washed with D-PBS(−) (Nakarai Tesque), and collected from the flask by using 0.25% Trypsin EDTA (GIBCO). The cells were centrifuged (1,200 rpm, 3 minutes), and after the supernatant was removed, suspended in 5% FBS DMEM/Ham's F-12 at a density of 0.75×10^7 cell/ml. This suspension (10 ml) was put into a 150 cm^3 flask (IWAKI), and culture was performed overnight (37° C., 5% CO2).
After the gene transfer, the cells were washed with D-PBS(−), then removed from the flask by using 0.25% Trypsin EDTA (GIBCO), and collected. […] This cell suspension was put into wells of D-Lysine coat 96-well plate (BD bioscience) in such a volume that the cell count is 7.0×10^4 cells/well, and the cells were cultured overnight.
After the culture, all the medium of the 96 wells were discarded. […] After the staining, 50 μl of a solution of stimulant (sweet taste substance) prepared with the assay buffer was added to each well, and the fluorescence value was measured for 120 seconds after the stimulation by using FDSSμEELL (Hamamatsu Photonics). […] The measurement and analysis of the fluorescence value was performed by using the software attached to FDSSμEELL (FDSS7000EX), and ΔF/F value was calculated in accordance with the following equation, and used for the evaluation. ΔF/F=(Maximum fluorescence value after stimulation−Minimum fluorescence value after stimulation)/(Fluorescence value before stimulation)
Furthermore, by using the ΔF/F values obtained when each sweet taste substance was added, the S/N ratio was calculated. Specifically, the S/N value was calculated by using the minimum value of ΔF/F obtained when each substance was added at various concentrations as noise (N) value, and the similarly obtained maximum value of ΔF/F as the signal (S) value, and used as an index for sensitivity of the measurement of the activity of each receptor.

hT1R2/mT1R3 = biological target: T2, hT1R2/mT1R3 (UniProt Q8TE23+Q925D8); assay: Intracellular calcium assay (ΔF/F, S/N ratio) in HEK293E cells expressing hT1R2 and mT1R3 with Gα15-trans48LD; assay type: cell-based, human/mouse
T2 construct: expressed in transfected cells; host or cells: HEK293E
T2 sequence (Q8TE23 20-839): T1 sequence (Q8TE23 20-839)
T2 sequence (Q925D8 21-858): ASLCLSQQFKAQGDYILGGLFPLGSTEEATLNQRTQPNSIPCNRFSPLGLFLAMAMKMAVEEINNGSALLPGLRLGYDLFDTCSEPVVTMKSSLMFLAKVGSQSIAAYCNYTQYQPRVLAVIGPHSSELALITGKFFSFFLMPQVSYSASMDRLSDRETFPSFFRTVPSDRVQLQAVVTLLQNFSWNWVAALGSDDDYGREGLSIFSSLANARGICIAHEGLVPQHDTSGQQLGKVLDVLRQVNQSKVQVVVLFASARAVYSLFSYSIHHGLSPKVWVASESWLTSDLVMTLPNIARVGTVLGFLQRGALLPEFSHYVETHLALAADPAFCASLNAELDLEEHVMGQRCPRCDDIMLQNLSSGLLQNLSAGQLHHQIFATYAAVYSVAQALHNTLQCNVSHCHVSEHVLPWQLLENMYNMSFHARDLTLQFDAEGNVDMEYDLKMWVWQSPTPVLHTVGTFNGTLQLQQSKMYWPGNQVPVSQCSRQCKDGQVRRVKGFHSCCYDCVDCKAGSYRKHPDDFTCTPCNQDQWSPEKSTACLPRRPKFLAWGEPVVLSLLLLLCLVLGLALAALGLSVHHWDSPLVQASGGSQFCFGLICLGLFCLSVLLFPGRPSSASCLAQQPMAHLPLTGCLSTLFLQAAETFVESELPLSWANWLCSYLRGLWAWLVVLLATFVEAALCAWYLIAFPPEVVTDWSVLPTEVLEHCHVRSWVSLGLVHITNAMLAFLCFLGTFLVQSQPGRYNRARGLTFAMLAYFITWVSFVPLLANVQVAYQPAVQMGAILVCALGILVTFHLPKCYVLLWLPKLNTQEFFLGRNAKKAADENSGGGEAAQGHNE
Method: The HEK293E cells maintained by using the DMEM/Ham's F-12 medium (Nakarai Tesque) containing 10% fetal bovine serum ([sequence]) and 1% Pen Strep (GIBCO) were washed with D-PBS(−) (Nakarai Tesque), and collected from the flask by using 0.25% Trypsin EDTA (GIBCO). The cells were centrifuged (1,200 rpm, 3 minutes), and after the supernatant was removed, suspended in 5% FBS DMEM/Ham's F-12 at a density of 0.75×10^7 cell/ml. This suspension (10 ml) was put into a 150 cm^3 flask (IWAKI), and culture was performed overnight (37° C., 5% CO2). On the next day, the medium was exchanged with Opti-MEM (30 ml, Invitrogen, Life Technologies), a sweet taste receptor gene mixture (Gα15-trans48LD gene, various kinds of T1R2 chimeric genes, and various kinds of T1R3 chimeric genes, 63.8 μg in total) prepared by using Opti-MEM and Lipofectamin 2000 (Invitrogen, Life Technologies) was slowly added to the cell suspension, and incubation was performed (37° C., 5% CO2) for 6 hours to attain gene transfer.
After the gene transfer, the cells were washed with D-PBS(−), then removed from the flask by using 0.25% Trypsin EDTA (GIBCO), and collected. After the cell number was counted, the cells were suspended in the 5% FBS DMEM medium (2.78 mM glucose, GIBCO) at a density of 0.5×10^6 cell/ml. This cell suspension was put into wells of D-Lysine coat 96-well plate (BD bioscience) in such a volume that the cell count is 7.0×10^4 cells/well, and the cells were cultured overnight.
After the culture, all the medium of the 96 wells were discarded. 200 μl of the staining solution for measurement of intracellular calcium ion′ Calcium Assay Kit Express (Molecular Device), diluted 80 times with an assay buffer (20 mM HEPES, 146 mM NaCl, 1 mM MgSO4, 1.39 mM glucose, 1 mM CaC12, 2.5 mM Probenecid, 0.05% bovine serum albumin) was added to each well, and the plate was left standing at 37° C. for 30 minutes and at room temperature for 45 minutes to perform staining. After the staining, 50 μl of a solution of stimulant (sweet taste substance) prepared with the assay buffer was added to each well, and the fluorescence value was measured for 120 seconds after the stimulation by using FDSSμEELL (Hamamatsu Photonics). By measuring the fluorescence value (Ex. 480 nm, Em. 540 nm) before and after the stimulation, the change of the intracellular free calcium ion concentration caused by addition of the stimulant via a sweet taste receptor was quantitatively investigated. The measurement and analysis of the fluorescence value was performed by using the software attached to FDSSμEELL (FDSS7000EX), and ΔF/F value was calculated in accordance with the following equation, and used for the evaluation. ΔF/F=(Maximum fluorescence value after stimulation−Minimum fluorescence value after stimulation)/(Fluorescence value before stimulation)
Furthermore, by using the ΔF/F values obtained when each sweet taste substance was added, the S/N ratio was calculated. Specifically, the S/N value was calculated by using the minimum value of ΔF/F obtained when each substance was added at various concentrations as noise (N) value, and the similarly obtained maximum value of ΔF/F as the signal (S) value, and used as an index for sensitivity of the measurement of the activity of each receptor. That is, a higher S/N value means a higher sensitivity for detection of an interaction of a sweet taste receptor and a test substance, which makes it easier to detect stimulation with a sweet taste substance or sweet taste-regulating substance of a lower concentration.

[1] = Table 3, genes hT2/hT3 (hT1R2, hT1R3), max ΔF/F over min ΔF/F across concentrations
[2] = Table 4, genes hT2/hT3 (hT1R2, hT1R3)
[3] = Table 5, genes hT2/hT3 (hT1R2, hT1R3)
[4] = Table 6, genes hT2/hT3 (hT1R2, hT1Rm3)
[5] = Table 3, genes hT2/mT3 (hT1R2, mT1R3)
[6] = Table 4, genes hT2/mT3 (hT1R2, mT1R3)

`CC1=CC(=O)NS(=O)(=O)O1` [Acesulfame K, acesulfame potassium] gave a S/N (hT1R2/hT1R3; [1]) of 1.9, a S/N (hT1R2/hT1R3; [2]) of 1.9 and a S/N (hT1R2/hT1R3; [3]) of 1.9. For the same compound, the S/N (hT1R2/hT1R3; [4]) was 1.9, the S/N (hT1R2/mT1R3; [5]) was 2.4 and the S/N (hT1R2/mT1R3; [6]) was 2.4.
In the case of `COC(=O)[C@H](Cc1ccccc1)NC(=O)[C@H](CC(=O)O)NCCCc1ccc(OC)c(O)c1` [Advantame, advantame], the S/N (hT1R2/hT1R3; [1]) is reported as 3.2, the S/N (hT1R2/hT1R3; [2]) is reported as 3.2 and the S/N (hT1R2/hT1R3; [3]) is reported as 3.2. For the same compound, the S/N (hT1R2/hT1R3; [4]) was 3.2, the S/N (hT1R2/mT1R3; [5]) was 4.6 and the S/N (hT1R2/mT1R3; [6]) was 4.6.
With `COC(=O)[C@H](Cc1ccccc1)NC(=O)[C@@H](N)CC(=O)O` [Aspartame, aspartame] (HELM PEPTIDE1{D.F.[CO[*:1]]}$$$$V2.0) the S/N (hT1R2/hT1R3; [1]) was 1.6, the S/N (hT1R2/hT1R3; [2]) was 1.6 and the S/N (hT1R2/hT1R3; [3]) was 1.6. It also gave a S/N (hT1R2/hT1R3; [4]) of 1.6, a S/N (hT1R2/mT1R3; [5]) of 2.3 and a S/N (hT1R2/mT1R3; [6]) of 2.3.
With `COc1ccc(CCC(=O)c2c(O)cc(O[C@@H]3O[C@H](CO)[C@@H](O)[C@H](O)[C@H]3O[C@@H]3O[C@@H](C)[C@H](O)[C@@H](O)[C@H]3O)cc2O)cc1O` [NHDC, neohesperidin dihydrochalcone] the S/N (hT1R2/hT1R3; [3]) was 2.0 and the S/N (hT1R2/hT1R3; [4]) was 2.0.
With `COC(=O)[C@H](Cc1ccccc1)NC(=O)[C@H](CC(=O)O)NCCC(C)(C)C` [Neotame, neotame] the S/N (hT1R2/hT1R3; [1]) was 2.9, the S/N (hT1R2/hT1R3; [2]) was 2.9 and the S/N (hT1R2/hT1R3; [3]) was 2.9. The S/N (hT1R2/hT1R3; [4]) was 2.9, the S/N (hT1R2/mT1R3; [5]) was 3.4 and the S/N (hT1R2/mT1R3; [6]) was 3.4.
For `C[C@H](NC(=Nc1ccc(C#N)cc1)NCC(=O)O)c1ccccc1` [SC-45647, [3-[(S)-1-phenylethyl]-2-(4-cyanophenyl)guanidino]acetic acid], the S/N (hT1R2/hT1R3; [1]) was 3.0, the S/N (hT1R2/hT1R3; [2]) was 3.0 and the S/N (hT1R2/hT1R3; [3]) was 3.0. It also gave a S/N (hT1R2/hT1R3; [4]) of 3.0, a S/N (hT1R2/mT1R3; [5]) of 3.9 and a S/N (hT1R2/mT1R3; [6]) of 3.9.
In the case of `O=C1NS(=O)(=O)c2ccccc21.[Na]` [Saccharin Na, sodium saccharin], the S/N (hT1R2/hT1R3; [1]) is reported as 2.5, the S/N (hT1R2/hT1R3; [2]) is reported as 2.5 and the S/N (hT1R2/hT1R3; [3]) is reported as 2.5. It also gave a S/N (hT1R2/hT1R3; [4]) of 2.5, a S/N (hT1R2/mT1R3; [5]) of 2.8 and a S/N (hT1R2/mT1R3; [6]) of 2.8.
Compound `OC[C@H]1O[C@H](O[C@]2(CCl)O[C@H](CCl)[C@@H](O)[C@@H]2O)[C@H](O)[C@@H](O)[C@H]1Cl` [Sucralose, sucralose] has a S/N (hT1R2/hT1R3; [1]) of 3.3, a S/N (hT1R2/hT1R3; [2]) of 3.3 and a S/N (hT1R2/hT1R3; [3]) of 3.3. It also gave a S/N (hT1R2/hT1R3; [4]) of 3.3, a S/N (hT1R2/mT1R3; [5]) of 4.0 and a S/N (hT1R2/mT1R3; [6]) of 4.0.
Compound `OC[C@H]1O[C@@](CO)(O[C@H]2O[C@H](CO)[C@@H](O)[C@H](O)[C@H]2O)[C@@H](O)[C@@H]1O` [Sucrose, sucrose] has a S/N (hT1R2/hT1R3; [1]) of 1.9, a S/N (hT1R2/hT1R3; [2]) of 1.9 and a S/N (hT1R2/hT1R3; [3]) of 1.9. For the same compound, the S/N (hT1R2/hT1R3; [4]) was 1.9, the S/N (hT1R2/mT1R3; [5]) was 2.4 and the S/N (hT1R2/mT1R3; [6]) was 2.4.
